According to ChEMBL document CHEMBL2331314, “Dorsamin-A's, glycerolipids carrying a dehydrophenylalanine ester moiety from the seed-eating larvae of the bruchid beetle Bruchidius dorsalis” (J Nat Prod, 2013):

Assay: Antioxidant activity assessed as concentration required to 50 % ABTS radical scavenging activity absorbance at 734 nm
Format: functional

`COC(=O)C(=O)Cc1ccccc1` and `COC(=O)/C(N)=C/c1ccccc1` are within 1.5-fold of each other in Activity: 8.8 µM for the first, 9.6 µM for the second.

Compared with `Cc1c(C)c2c(c(C)c1O)CCC(C)(C(=O)O)O2` (stereo not given), `COC(=O)/C=C/c1ccccc1` is higher in Activity: 19 µM for the first, over 1000 µM for the second.

`CCCCCCCC/C=C/CCCCCCCC(=O)OC[C@H](COC(=O)/C(N)=C/c1ccccc1)OC(=O)CCCCCCC/C=C/CCCCCCCC` showed an Activity of 11 µM.
